Experimental data taken from US9186369B2, “Purine nucleoside analogues for treating flaviviridae including hepatitis C” (Idenix Pharmaceuticals, Inc., priority 2003, dated 2015).

Each molecule was assayed on MDK (assay: Cytotoxicity assay (sulforhodamine staining, CC50)). Conditions: MDK cells; 4 days incubation; concentration reducing cell number by 50%; preliminary results.
Type: cell-based
Method: Cells are seeded at a rate of between 5×10^3 and 5×10^4/well into 96-well plates in growth medium overnight at 37° C. in a humidified CO2 (5%) atmosphere. New growth medium containing serial dilutions of the drugs is then added. After incubation for 4 days, cultures are fixed in 50% TCA and stained with sulforhodamine. The optical density was read at 550 nm. The cytotoxic concentration was expressed as the concentration required to reduce the cell number by 50% (CC50).
For `Cc1cn([C@@H]2O[C@](C)(CO)[C@@H](O)[C@H]2O)c(=O)[nH]c1=O` [β-D-4′-CH3-riboT], the CC50 was > 250 µM. For `C[C@]1(CO)O[C@@H](n2cnc3c(=O)[nH]c(N)nc32)[C@H](O)[C@@H]1O` [β-D-4′-CH3-riboG], the CC50 was > 250 µM. With `CC1(CO)OC(n2cc(F)c(=O)[nH]c2=O)C(O)C1O` [β-D-4′-CH3-ribo-5-fluoroU] the CC50 was > 167 µM. For `C[C@]1(CO)O[C@@H](n2ccc(N)nc2=O)[C@H](O)[C@@H]1O` [β-D-4′-CH3-riboC], the CC50 was > 250 µM. `C[C@]1(CO)O[C@@H](n2ccc(=S)[nH]c2=O)[C@H](O)[C@@H]1O` [β-D-4′-CH3-ribo-4-thioU] was tested, and the CC50 was > 250 µM. In the case of `C[C@]1(CO)O[C@@H](n2cnc3c(N)ncnc32)[C@H](O)[C@@H]1O` [β-D-4′-CH3-riboA], the CC50 is reported as > 250 µM.
